The text below walks through data of patent US9775902B2, “Compounds and methods for treatment of stroke” (FIBROGEN, INC, priority 2006, dated 2017).

In test [1] the test system is Wistar rats, transient MCA occlusion. Nature of the test: Tactile adhesion test in rat tMCAO. It counts as in vivo. As to conditions: 60 mg/kg p.o. at 1.5 and 24 hours after reperfusion then 30 mg/kg every other day, day 7, vs non-treated control, FIG. 4. The text has this: (§1) Rats subjected to cerebral ischemia following transient MCA occlusion have deficits in sensorimotor and neuromuscular function which can be assessed using various behavioral tests. (See, e.g., Aronowski et al. J Cereb Blood Flow Metab (1996) 16:705-713; and Colbourne et al. J Cereb Blood Flow Metab (2000) 20:1702-1708.) The effect of compounds of the present invention on various functional impairments associated with stroke was examined using an animal model of ischemic stroke. In this series of experiments, male Wistar rats (300 g) underwent behavioral testing after transient MCA occlusion. One day prior to MCAO surgery, the rats were trained to the grip strength meter and subjected to tactile adhesion testing. Following their training, rats were subjected to transient occlusion of the MCA in the same manner described in Example 10 above. Compound F (60 mg/kg, p.o.) was administered by oral gavage at 1.5 hours and 24 hours after reperfusion and then every other day (with a dose of 30 mk/kg, p.o.) for 28 days. […]
A tactile adhesion test was used to measure sensorimotor deficits and function. […] The latency (i.e. time required for the animal to remove each stimulus from the forelimbs) was recorded for ipsilateral (right) and contralateral (left) forelimbs separately. Three trials separated by 5 minutes were carried out for each rat and mean latency values in seconds (sec) were recorded.

For test [2] the test system is unchanged. Nature of the test: Grip strength test in rat tMCAO. It counts as in vivo. The settings on record: 60 mg/kg p.o. at 1.5 and 24 hours after reperfusion then 30 mg/kg every other day, days 7, 14, 21, and 28, vs non-treated control, FIG. 5.
Description: as §1
Grip strength was used to assess neuromuscular function. Rat grip strength was determined using a standard rodent grip strength meter (Columbus Instruments, Columbus Ohio). […] Grip strength was assessed with a gentle consistent pull in the caudal direction. The digital reading on the meter was recorded and the mean of three trials reported. […]

For `COc1ccc(Oc2ccc3c(O)c(C(=O)NCC(=O)O)ncc3c2)cc1` [Compound F, {[4-Hydroxy-7-(4-methoxy-phenoxy)-isoquinoline-3-carbonyl]-amino}-acetic acid], the “latency in the tactile adhesion test” value in test [1] was “significantly improved”. The grip strength result in test [2] is “significantly improved”.
